Results on 18 compounds are retold here after PubChem BioAssay AID248 (DTP/NCI, 2004).

Several values for one entry are separate records, joined by “and”; a condition that tells them apart may be missing. Identical values can stand only once. Toxic doses and inconclusive results are not listed.

The experiment relates to L1210 leukemia ip in BDF1 mice, survival T/C. Nature of the experiment: NCI In Vivo Anticancer Drug Screen. Data for tumor model L1210 Leukemia (intraperitoneal) in B6D2F1 (BDF1) mice. Particulars: endpoint: mean survival time, higher = longer survival. The method, boiled down:
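In this screen, tumor-bearing mice given compound are compared to those given vehicle, and their survival values are reported as a treated-to-control quotient.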

Where [1] appears, read: dose: 100.0 mg/kg/injection, schedule: Q01DX001 (ip), vehicle: saline.
Where [2] appears, read: dose: 200.0 mg/kg/injection, schedule: Q01DX001 (ip), vehicle: saline.
Setting [3] is: dose: 400.0 mg/kg/injection, schedule: Q01DX001 (ip), vehicle: saline.
Setting [4] is: dose: 200.0 mg/kg/injection, schedule: Q01DX001 (ip), vehicle: saline with Tween-80.
[5] abbreviates: dose: 400.0 mg/kg/injection, schedule: Q01DX001 (ip), vehicle: saline with Tween-80.
Setting [6] is: dose: 100.0 mg/kg/injection, schedule: Q04DX003 (ip), vehicle: saline with Tween-80.
Where [7] appears, read: dose: 200.0 mg/kg/injection, schedule: Q04DX003 (ip), vehicle: saline with Tween-80.
Setting [8] is: dose: 100.0 mg/kg/injection, schedule: Q01DX009 (ip), vehicle: saline with Tween-80.
Where [9] appears, read: dose: 200.0 mg/kg/injection, schedule: Q01DX009 (ip), vehicle: saline with Tween-80.
[10] abbreviates: dose: 400.0 mg/kg/injection, schedule: Q01DX009 (ip), vehicle: saline with Tween-80.
[11] abbreviates: dose: 400.0 mg/kg/injection, schedule: Q04DX003 (ip), vehicle: saline with Tween-80.

`CCC(Cl)COP(=O)(OCC(Cl)CC)O/C(C)=C(\C)OP(=S)(OCC(Cl)CC)OCC(Cl)CC` (stereo not given): the T/C reads like this: (dose: 100.0 mg/kg/injection, schedule: Q04DX002 (sc), vehicle: olive oil, sesame oil, peanut oil) 108 % of control; (dose: 200.0 mg/kg/injection, schedule: Q04DX002 (sc), vehicle: olive oil, sesame oil, peanut oil) 102 % of control; (dose: 400.0 mg/kg/injection, schedule: Q04DX002 (sc), vehicle: olive oil, sesame oil, peanut oil) 102 % of control.

Turning to `O=C(O)CCCCCCC(=O)OCC(=O)c1ccc(-c2ccccc2)cc1`, the T/C is 94 % of control under setting [1], 91 % of control under setting [2] and 91 % of control under setting [3].

`C=C1CC2(CCC3(CC2)OCCO3)OC1=O`: the T/C runs as follows: (dose: 100.0 mg/kg/injection, schedule: Q01DX001 (ip), vehicle: saline with Tween-80) 95 % of control; under setting [4], 95 % of control; under setting [5], 98 % of control.

As for `N#Cc1ccc(/C=N\NC(=O)CCCC(=O)N/N=C/c2ccc(C#N)cc2)cc1`, the T/C (dose: 50.0 mg/kg/injection, schedule: Q01DX001 (ip), vehicle: other) was 91 % of control; the T/C (dose: 100.0 mg/kg/injection, schedule: Q01DX001 (ip), vehicle: other) was 91 % of control; the T/C (dose: 400.0 mg/kg/injection, schedule: Q01DX001 (ip), vehicle: other) is 91 % of control.

As for `O=C(c1ccc(-c2ccccc2)cc1)C(Br)CCBr` (stereo not given), the T/C by setting is: under setting [6], 106 % of control; under setting [7], 93 % of control.

As to `CCCCn1cccc1`, the T/C is 106 % of control under setting [6] and 95 % of control under setting [7].

Turning to `C[C@H]1CP(c2ccccc2)(c2ccccc2)(c2ccccc2)O[C@@]1(C(=O)c1ccccc1)c1ccccc1`, the T/C is 100 % of control (dose: 12.5 mg/kg/injection, schedule: Q04DX003 (ip), vehicle: saline with Tween-80); 100 % of control (dose: 25.0 mg/kg/injection, schedule: Q04DX003 (ip), vehicle: saline with Tween-80); 94 % of control (dose: 50.0 mg/kg/injection, schedule: Q04DX003 (ip), vehicle: saline with Tween-80).

In the case of `COc1ccc2c(c1OC)C13CCN(C)C(C2)C12C=CC(=O)C3c1c(OC)ccc(OC)c12` (stereo not given), the T/C was 95 % of control under setting [1], 95 % of control under setting [2] and 91 % of control under setting [3].

With `CCC1=C[C@H]2CN(CCc3c([nH]c4ccccc34)[C@@](C(=O)OC)(c3cc4c(cc3OC)N(C)[C@H]3[C@@](O)(C(=O)NC)[C@H](OC(C)=O)[C@]5(CC)C=CCN6CC[C@]43[C@@H]65)C2)C1`, the T/C by setting is: (dose: 0.03 mg/kg/injection, schedule: Q01DX009 (ip), vehicle: saline) 103 % of control; (dose: 0.03 mg/kg/injection, schedule: Q01DX009 (ip), vehicle: water) 103 % of control; (dose: 0.06 mg/kg/injection, schedule: Q01DX009 (ip), vehicle: saline) 114 % of control; (dose: 0.06 mg/kg/injection, schedule: Q01DX009 (ip), vehicle: water) 115 % of control; (dose: 0.12 mg/kg/injection, schedule: Q01DX009 (ip), vehicle: saline) 117 % of control; (dose: 0.25 mg/kg/injection, schedule: Q01DX009 (ip), vehicle: saline) 114 % of control. The T/C runs as follows: (dose: 0.25 mg/kg/injection, schedule: Q01DX009 (ip), vehicle: water) 157 % of control; (dose: 1.0 mg/kg/injection, schedule: Q01DX009 (ip), vehicle: saline) 120 % of control; (dose: 1.0 mg/kg/injection, schedule: Q01DX009 (ip), vehicle: water) 118 % of control.

Turning to `CC(C)CCC(O)c1cnc(OCc2ccccc2)nc1OCc1ccccc1` (stereo not given), the T/C was 92 % of control (dose: 100.0 mg/kg/injection, schedule: Q04DX003 (ip), vehicle: Klucel (hydroxypropylcellulose) (HPC)); 95 % of control (dose: 200.0 mg/kg/injection, schedule: Q04DX003 (ip), vehicle: Klucel (hydroxypropylcellulose) (HPC)); 100 % of control (dose: 400.0 mg/kg/injection, schedule: Q04DX003 (ip), vehicle: Klucel (hydroxypropylcellulose) (HPC)).

With `CC1(C(Cl)Cl)C=CC=CC1=O` (stereo not given), the T/C is 102 % of control (dose: 100.0 mg/kg/injection, schedule: Q01DX001 (ip), vehicle: Klucel (hydroxypropylcellulose) (HPC)); 106 % of control (dose: 200.0 mg/kg/injection, schedule: Q01DX001 (ip), vehicle: Klucel (hydroxypropylcellulose) (HPC)); 104 % of control (dose: 400.0 mg/kg/injection, schedule: Q01DX001 (ip), vehicle: Klucel (hydroxypropylcellulose) (HPC)).

In the case of `O=C1CCN(CCN2CCC(=O)N(Cc3ccccc3)C2=S)C(=S)N1Cc1ccccc1`, the T/C reads like this: (dose: 100.0 mg/kg/injection, schedule: Q04DX002 (ip), vehicle: Klucel (hydroxypropylcellulose) (HPC)) 100 % of control; (dose: 200.0 mg/kg/injection, schedule: Q04DX002 (ip), vehicle: Klucel (hydroxypropylcellulose) (HPC)) 107 % of control; (dose: 400.0 mg/kg/injection, schedule: Q04DX002 (ip), vehicle: Klucel (hydroxypropylcellulose) (HPC)) 96 % of control.

`NC(=O)Cc1csc2ccccc12`: the T/C by setting is: under setting [1], 101 % of control; under setting [2], 106 % of control.

As to `Cc1ccc(C(c2ccc(C)cc2)C(Cl)Cl)cc1`, the T/C under setting [8] was 96 % of control, the T/C under setting [9] is 109 % of control and the T/C under setting [10] is 107 % of control.

As to `COc1ccc(Cl)cc1NC(=O)Oc1ccccn1`, the T/C was 89 % of control under setting [8]; 92 % of control and 97 % of control (dose: 100.0 mg/kg/injection, schedule: Q04DX002 (ip), vehicle: saline with Tween-80); 95 % of control under setting [6]; 89 % of control under setting [4]; 90 % of control and 91 % of control under setting [9]; 93 % of control and 102 % of control (dose: 200.0 mg/kg/injection, schedule: Q04DX002 (ip), vehicle: saline with Tween-80). Moreover, the T/C is, setting by setting: under setting [7], 101 % of control; under setting [5], 92 % of control; under setting [10], 96 % of control; (dose: 400.0 mg/kg/injection, schedule: Q04DX002 (ip), vehicle: saline with Tween-80) 95 % of control and 91 % of control; under setting [11], 101 % of control.

Turning to `COc1ccc(Cl)cc1NC(=O)Nc1ccc(Cl)cc1[N+](=O)[O-]`, the T/C was 100 % of control (dose: 100.0 mg/kg/injection, schedule: Q01DX009 (ip), vehicle: Klucel (hydroxypropylcellulose) (HPC)); 94 % of control (dose: 200.0 mg/kg/injection, schedule: Q01DX009 (ip), vehicle: Klucel (hydroxypropylcellulose) (HPC)); 97 % of control (dose: 400.0 mg/kg/injection, schedule: Q01DX009 (ip), vehicle: Klucel (hydroxypropylcellulose) (HPC)).

For `COC(=O)CCC(C)C1CCC2(C)C3=C(C(=O)CC12C)C1(C)CCC(O)C(C)(C)C1=C(O)C3` (stereo not given), the T/C (dose: 100.0 mg/kg/injection, schedule: Q04DX003 (ip), vehicle: saline) was 91 % of control; the T/C (dose: 200.0 mg/kg/injection, schedule: Q04DX003 (ip), vehicle: saline) was 93 % of control; the T/C (dose: 400.0 mg/kg/injection, schedule: Q04DX003 (ip), vehicle: saline) is 91 % of control.

For the compound `O=c1c2ccccc2c2c3c1cccc3c1cccc3c(=O)c4ccccc4c2c31`, the T/C runs as follows: under setting [6], 98 % of control; under setting [7], 101 % of control; under setting [11], 104 % of control.
